Laboratory results as given in publication PMC2852842, “Marine Natural Meroterpenes: Synthesis and Antiproliferative Activity” (Marine Drugs, 2010).
≈ marks a conversion by molar mass, not a printed value. Where two headings read alike, the source gives them in different places.

Key:
Escherichia coli = test: Microtiter Broth Dilution antibacterial assay; type: cell-based; conditions: for antibacterial effect (in words): E. coli
Procedure: (§1) The Microtiter Broth Dilution Method on gram negative (Escherichia coli) and gram positive (Micrococcus luteus) bacteria was used. Meroterpenes dissolved in DMSO were added to bacteria suspensions (5:100 v:v) for 24 hours. The assay was carried out in triplicate. Bacterial growth was evaluated by absorbance measurement (630 nm). The minimum concentration that inhibits (MIC) bacterial growth was determined for each compound on each bacterial strain.
(§2) The antibacterial assay used was based on the previously described method published by the […].

Micrococcus luteus = test: Microtiter Broth Dilution antibacterial assay; type: cell-based; conditions: for antibacterial effect (in words): M. luteus; for MIC: Micrococcus luteus, 24 h
Procedure: as §1, §2

[1] = tested on: Paracentrotus lividus eggs; test: Inhibition of sea urchin egg division; type: cell-based
Procedure: (§3) For cytotoxic assays on sea urchins, meroterpenes were dissolved in an egg suspension (described in the experimental section), and their ability to inhibit 50% of cell division (IC50) was estimated. Each experiment was carried out in triplicate and an average taken.
(§4) For antiproliferative assays on sea urchin eggs, we used a previously described method.

[2] = tested on: Sphaerechinus granularis eggs; test: Inhibition of sea urchin egg division; type: cell-based; conditions: for IC50: read-out: IC50 S. granularis
Procedure: as §3, §4

Micrococus luteus = tested on: Micrococus luteus; set-up: method as in PMID 17448456; conditions: cited from earlier work
Staphyclococcus aureus = tested on: Staphyclococcus aureus; set-up: method as in PMID 3404153, PMID 7608321; conditions: cited from earlier work
Streptococcus faecalis = tested on: Streptococcus faecalis; set-up: method as in PMID 3404153, PMID 7608321; conditions: cited from earlier work
[3] = tested on: MCF7 breast adenocarcinoma cells; test: Resazurin reduction test (RRT) cytotoxicity; type: cell-based, human; conditions: for IC50: Homo sapiens
Procedure: (§5) To provide information on their antiproliferative activity against solid cancers, the six meroterpenes were tested on three human carcinoma cell lines corresponding to cancers commonly observed in Western countries: MCF7 (breast), PA1 (ovary) and PC3 (prostate). To obtain additional information on their specificity for human cell lines and their specificity for cancer versus normal cell lines, each compound was tested versus L-929 murine immortalized cells and human normal fibroblasts. To mimic what happens in vivo, assays were carried out on exponentially growing cells cultured in the presence of 10% serum. The growth inhibitory effect was determined by measuring, after a 48 hour exposure to each chemical, the metabolic activity of treated and control cultures using the resazurin reduction test (RRT), which measures the amount of fluorescent resofurin produced by living cells. […] A dose-dependent inhibition of cell proliferation was only observed for epiconicol (3a). […] The toxicity of epiconicol observed in our model is in agreement with data obtained by Caroll and co-workers on a panel of cancer cells.
(§6) Human primary fibroblasts were purchased from Biopredic International (Rennes, France). Immortalized murine L929 cells and human MCF7 breast adenocarcinoma, PA1 ovary teratocarcinoma and PC3 androgen-resistant prostate carcinoma cells were obtained from the European Collection of Cell Cultures (ECACC, Salibury, UK). All were cultured at 37 °C under 5% CO2 and maintained in Eagle’s minimum essential medium (Gibco-BRL, Paisley, Scotland) supplemented with 10% fetal calf serum, vitamins and antibiotics (Gibco™, Cergy-Pontoise, France) as described previously.
(§7) The cytotoxicity of each treatment was determined after a 48 h exposure to each chemical (6 concentrations in triplicate, each in DMSO 0.5%) by means of the resazurin reduction test (RRT) that measures the amount of fluorescent resorufin produced by living cells. Assays were carried out at 530/590 nm accordingly to the procedure described by Barthomeuf et al.. IC50 values (mean ± S.D.) were calculated with the ALLFIT program and were expressed in μM.

[4] = tested on: PA1 ovary teratocarcinoma cells; test: Resazurin reduction test (RRT) cytotoxicity; type: cell-based, human; conditions: for IC50: Homo sapiens
Procedure: as §5, §6, §7

[5] = tested on: MCF7, PA1, PC3, L-929 cells and human normal fibroblasts; test: Resazurin reduction test (RRT) cytotoxicity, whole panel of cell lines; type: cell-based; conditions: span over the cell lines, 48 hour exposure, read-out: IC50, varied with the cell lines
Procedure: To provide information on their antiproliferative activity against solid cancers, the six meroterpenes were tested on three human carcinoma cell lines corresponding to cancers commonly observed in Western countries: MCF7 (breast), PA1 (ovary) and PC3 (prostate). To obtain additional information on their specificity for human cell lines and their specificity for cancer versus normal cell lines, each compound was tested versus L-929 murine immortalized cells and human normal fibroblasts. To mimic what happens in vivo, assays were carried out on exponentially growing cells cultured in the presence of 10% serum. The growth inhibitory effect was determined by measuring, after a 48 hour exposure to each chemical, the metabolic activity of treated and control cultures using the resazurin reduction test (RRT), which measures the amount of fluorescent resofurin produced by living cells. […] A dose-dependent inhibition of cell proliferation was only observed for epiconicol (3a). […]
as §7, with “Assays were carried out at 530/590 nm accordingly to the procedure described by Barthomeuf et al..” left out

[6] = tested on: L-929 murine immortalized cells; test: Resazurin reduction test (RRT) cytotoxicity; type: cell-based; conditions: Mus musculus
Procedure: as §5, §6, §7

[7] = tested on: PC3 androgen-resistant prostate carcinoma cells; test: Resazurin reduction test (RRT) cytotoxicity; type: cell-based; conditions: Homo sapiens
Procedure: as §5, §6, §7

human normal fibroblasts = test: Resazurin reduction test (RRT) cytotoxicity; type: cell-based; conditions: Fibroblast
Procedure: as §5, §6, §7

S.s granularis eggs = test: HPLC analysis of cytoplasmic extracts of treated sea urchin eggs; type: in vitro ADME, Sphaerechinus granularis; conditions: eggs treated with 5 μM
Procedure: To test the latter hypothesis, S.s granularis eggs were treated with 5 μM of methoxyconidiol, a concentration that inhibits their division. Sea urchin eggs were incubated 1, 40 and 90 minutes post-fertilization (p.f.) in the presence of methoxyconidiol. Cytoplasmic extracts of treated and control eggs were further prepared. Organic extracts of the cytoplasmic preparations were finally obtained and analyzed by HPLC (Figure 3).
Figure 3 HPLC analysis of methoxyconidiol (System WATERS, column: synergy 4 μm RP max; elution water: methanol under a gradient; UV detection 285 nm; flow: 0.3 mL/min) A: control compound (methoxyconidiol) B: analysis after Solid Phase Extraction at 1, 40 and 90 minutes after fertilization (min p.f.).
Preparation of cytoplasmic extracts was based on the technique described by Collas and Poccia. Gametes of P. lividus were collected in two separate beakers. Sperm was maintained undiluted on ice and eggs were stored at 19 °C until use. Sperm was diluted to 10% in Filtered Sea Water (FSW) and eggs were at 26 eggs/μL in FSW. […]
Cytoplasmic extracts of treated and control eggs were extracted with CH3OH and CH2Cl2 and analyzed by HPLC. […] This fraction was analyzed in HPLC (column: Phenomenex synergy 4μ max RP; elution with water and methanol under gradient, starting from 30% to 0% of water during 15 minutes; flow: 0.3 mL/min; detection photodiode array, UV at 285 nm).

sea urchin embryos = tested on: sea urchin embryos; set-up: method as in PMID 17448456; conditions: cited from earlier work
[8] = Paracentrotus lividus, 85 min, read-out: IC50 P. lividus, egg division, 85 minutes after fertilization
[9] = Sphaerechinus granularis, 85 min

Structure (SMILES): COc1ccc2c(c1)-c1cc(C)ccc1C(C)(C)O2 [4b, O-methyldidehydroconicol]
- antibacterial effect (in words) (Escherichia coli): totally inactive
- antibacterial effect (in words) (Micrococcus luteus): totally inactive
- IC50 [1, 8]: > 25 µM
- IC50 [2, 9]: > 25 µM

Structure (SMILES): COc1ccc2c(c1)[C@H]1C=C(C)CC[C@H]1C(C)(C)O2 (relative stereo) [3b]
- antibacterial effect (in words) (Escherichia coli): totally inactive
- antibacterial effect (in words) (Micrococcus luteus): totally inactive
- IC50 [1, 8]: > 25 µM
- IC50 [2, 9]: > 25 µM

Structure (SMILES): CC(C)=CCCC1(C)C=Cc2cc(O)ccc2O1 (centres unmarked) [cordiachromene A]
- growth inhibition (in words) (Micrococus luteus): moderately inhibits
- growth inhibition (in words) (Staphyclococcus aureus): moderately inhibits
- growth inhibition (in words) (Streptococcus faecalis): moderately inhibits

Structure (SMILES): CC1=C[C@@H]2c3cc(O)ccc3OC(C)(C)[C@@H]2CC1 [3a, epiconicol]
- antibacterial effect (in words) (Escherichia coli): weakly active
- MIC (Escherichia coli; Escherichia coli, 24 h): 800 µM (≈ 195 µg/mL)
- antibacterial effect (in words) (Micrococcus luteus): weakly active
- MIC (Micrococcus luteus): 100 µM (≈ 24.4 µg/mL)
- IC50 [2, 9]: 9.8 ± 1.3 µM
- cultures killed ([3]; MCF7, at 5 μM): 30%
- cultures killed ([4]; PA1, at 5 μM): 30%
- IC50 [5]: 37 to 69 µM

Structure (SMILES): Cc1ccc2c(c1)-c1cc(O)ccc1OC2(C)C [4a, didehydroconicol]
- antibacterial effect (in words) (Micrococcus luteus): weakly active
- MIC (Micrococcus luteus): 500 µM (≈ 120 µg/mL)
- IC50 [1, 8]: 11.3 ± 0.8 µM
- activity on egg division (in words) ([2]; S. granularis eggs): inactive
- IC50 [2, 9]: > 25 µM
- IC50 ([3]; MCF7, 48 h): > 100 µM
- IC50 ([4]; 48 h): > 100 µM
- IC50 ([6]; L929, 48 h): > 100 µM
- IC50 ([7]; 48 h): > 100 µM
- IC50 (human normal fibroblasts; Homo sapiens, 48 h): > 100 µM

Structure (SMILES): COc1ccc(O)c([C@@H]2C=C(C)CC[C@@H]2C(C)(C)OC)c1 (relative stereo) [5b]
- IC50 ([1]; Paracentrotus lividus, 85 min, egg division, 85 minutes after fertilization, read-out: IC50 P. lividus): > 25 µM
- IC50 ([2]; Sphaerechinus granularis, 85 min, egg division, 85 minutes after fertilization): > 25 µM

Structure (SMILES): COC(C)(C)[C@H]1CCC(C)=C[C@H]1c1cc(O)ccc1O [5a, methoxyconidiol]
- IC50 ([1]; egg division, 85 minutes after fertilization, listed as methoxyconidiol, read-out: IC50 P. lividus): 0.8 µM
- IC50 ([1]; egg division, 85 minutes after fertilization, read-out: IC50 P. lividus): 4.3 ± 0.1 µM
- IC50 ([2]; egg division, 85 minutes after fertilization, listed as methoxyconidiol): 4.3 µM
- IC50 ([2]; egg division, 85 minutes after fertilization): 0.8 µM
- IC50 ([3]; MCF7, 48 hour exposure, 10% serum, RRT, read-out: IC50): > 100 µM
- IC50 ([4]; PA1, 48 hour exposure, 10% serum, RRT, read-out: IC50): > 100 µM
- IC50 ([6]; L929, L-929, 48 hour exposure, 10% serum, RRT, read-out: IC50): > 100 µM
- IC50 ([7]; PC3, 48 hour exposure, 10% serum, RRT, read-out: IC50): > 100 µM
- IC50 (human normal fibroblasts; human normal fibroblasts, 48 hour exposure, 10% serum, RRT, read-out: IC50): > 100 µM
- level of the compound in cytoplasmic extracts during incubation (S.s granularis eggs; 1, 40 and 90 minutes post-fertilization, HPLC): did not decrease significantly
- penetration through sea urchin cell membranes (S.s granularis eggs; presence in the cytoplasm): penetrates through sea urchin cell membranes
- melting point: 197 °C
- effect on sea urchin embryos during cell division (sea urchin embryos): disturbs mitotic spindle assembly leading to a cell cycle arrest during metaphase/anaphase transition
